Results from US20130289070A1, “Use of Levocabastine for Modulating Generation of Pro-Inflammatory Cytokines” (Bausch & Lomb Incorporated, priority 2007, published 2013).

Tested on: EoL-1 (human eosinophilic leukaemia cell line) cells
Test: TNF-α-induced cytokine release, non-differentiated EoL-1 cells (NO PMA) (Luminex)
Assay type: cell-based
Parameters: key to Fractalkine (NO PMA), p of decrement / IL-1α (NO PMA), p of decrement / IL-1β (NO PMA), p of decrement / IL-1ra (NO PMA), p of decrement / IL-5 (NO PMA), p of decrement / IL-7 (NO PMA), p of decrement / IL-8 (NO PMA), p of decrement / IP-10 (NO PMA), p of decrement / MCP-1 (NO PMA), p of decrement / MIP-1β (NO PMA), p of decrement / VEGF (NO PMA), p of decrement: ns = non significant
Method: EoL-1 (human eosinophilic leukaemia cell line) cells (Saito et al., 1985; Mayumi, 1992) were maintained in RPMI-1640 medium with L-glutamine supplemented with 10% (v/v) FBS at 37° C. in a humidified atmosphere with 5% CO2. Where indicated, 24 h before the experiment 25 ng/mL PMA ((phorbol 12-myristate 13-acetate, purchased from Sigma Aldrich) was added to the medium to induce eosinophil granulation and differentiation (Ohtsu et al., 1993; Zimmermann et al., 2000).
Half-million cells were aliquoted per point in a 24 well plate; each experiment was performed in triplicate and carried out in parallel with eosinophils differentiated and non differentiated with PMA (25 ng/mL, 24 h). Cells were suspended in low serum medium (RPMI-1640, 0.1% (v/v) FBS). TNF-α was used to induce cytokine secretion as previously described by Steube et al. (2000), and the net release was obtained by comparison to the basal (non-TNF-α treated). In the first experiment we evaluated the concentration and time relation between TNF-α stimulation and cytokine release. Therefore, 5, 10, and 25 ng/mL of TNF-α was administered to the cells at 0, ½, 1, 2, 3, 6, 12 and 24 h (data not shown). An aliquot of 150 μL of supernate was collected for cytokines' analysis. […] Differentiated and non-differentiated EoL-1 cells were exposed from 0.1 to 2.3 mM levocabastine ([…]Levocabastine 0.05% solution eye drops containing cyclodextrins, without benzalkonium chloride), and aliquots of the supernates were collected after 12 and 24 h. The content of cytokines at time zero was estimated by treating the cells with 400 nM calcimycin (A-23187), which is a cytolytic agent that frees all the mediators from the cytoplasmic compartment. In addition, for each experiment we tested the effect of the vehicle, which was added to the wells in a concentration equal to the maximum amount used for drug dilution.
Samples (supernates 12 and 24 h) in triplicate were analyzed using Luminex 200™ (Luminex, Austin, Tex.) and Beadview software v1.0 (Upstate Cell Signaling Solutions, Temecula, Calif.).
All data are presented as mean±SEM for the indicated number of experiments. Statistical significance was determined by Newman-Keuls test after ANOVA using GraphPad Prism (version 3.0; GraphPad Software Inc., San Diego, Calif., USA). P-values<0.05 were considered to be significant.

[1] = 12 h, TNF-α 5 ng + Levocabastine 2 mM vs TNF-α
[2] = 12 h, TNF-α 10 ng + Levocabastine 2 mM vs TNF-α
[3] = 12 h, TNF-α 20 ng + Levocabastine 2 mM vs TNF-α
[4] = 12 h, TNF-α 5, 10, 20 ng + Levocabastine 2 mM vs TNF-α
[5] = 24 h, FN + Levocabastine 2 mM vs FN
[6] = 24 h, Levocabastine 2 mM vs TNF-α

C[C@@H]1CN([C@H]2CC[C@](C#N)(c3ccc(F)cc3)CC2)CC[C@]1(C(=O)O)c1ccccc1 [Levocabastine, levocabastine]
concentration dependent increase of: MIP-1α (NO PMA), change of secretion (12 h, TNF-α vs Lev 0.1-2.3 mM)
P < 0.05: VEGF (NO PMA), p of decrement [3] | IL-12p40 (NO PMA), p of decrement [5]
P < 0.01: VEGF (NO PMA), p of decrement [1] | VEGF (NO PMA), p of decrement [2]
effective in reducing the release: release of IL-1-ra induced by TNF-α (2 mM, TNF-α 10 ng, 24 h, not exposed to PMA, not influenced by VCAM-1 or fibronectin (FIG. 11)) | release of IL-6 induced by TNF-α (2 mM, TNF-α 10 ng, 24 h, not exposed to PMA, not influenced by VCAM-1 or fibronectin (FIG. 12)) | release of IL-8 induced by TNF-α (2 mM, TNF-α 10 ng, 24 h, not exposed to PMA, not influenced by VCAM-1 or fibronectin (FIG. 13))
increase of cytokine secretion: Fractalkine (NO PMA), p of decrement [4] | G-CSF (NO PMA), p of decrement [4] | IL-1ra (NO PMA), p of decrement [4] | IL-1α (NO PMA), p of decrement [4] | IP-10 (NO PMA), p of decrement [4] | MIP-1α (NO PMA), p of decrement [4] | MIP-1β (NO PMA), p of decrement [4] | RANTES (NO PMA), p of decrement [4] | RANTES (NO PMA), change of secretion (12 h, TNF-α vs Lev 0.1-2.3 mM)
capable of reducing the release: release of IL-12-P40 induced by TNF-α (2 mM, TNF-α 5, 10 and 20 ng, 24 h, without PMA (FIG. 7))
ns: GM-CSF (NO PMA), p of decrement [1] | IL-1β (NO PMA), p of decrement [1] | IL-5 (NO PMA), p of decrement [1] | IL-6 (NO PMA), p of decrement [1] | IL-7 (NO PMA), p of decrement [1] | IL-8 (NO PMA), p of decrement [1] | IL-10 (NO PMA), p of decrement [1] | MCP-1 (NO PMA), p of decrement [1] | TGF-α (NO PMA), p of decrement [1] | GM-CSF (NO PMA), p of decrement [2] | IL-1β (NO PMA), p of decrement [2] | IL-5 (NO PMA), p of decrement [2] | IL-6 (NO PMA), p of decrement [2] | IL-7 (NO PMA), p of decrement [2] | IL-8 (NO PMA), p of decrement [2] | IL-10 (NO PMA), p of decrement [2] | MCP-1 (NO PMA), p of decrement [2] | TGF-α (NO PMA), p of decrement [2] | GM-CSF (NO PMA), p of decrement [3] | IL-1β (NO PMA), p of decrement [3] | IL-5 (NO PMA), p of decrement [3] | IL-6 (NO PMA), p of decrement [3] | IL-7 (NO PMA), p of decrement [3] | IL-8 (NO PMA), p of decrement [3] | IL-10 (NO PMA), p of decrement [3] | MCP-1 (NO PMA), p of decrement [3] | TGF-α (NO PMA), p of decrement [3] | Fractalkine (NO PMA), p of decrement (12 h, TNF-α vs Lev 0.1 mM) | IL-1ra (NO PMA), p of decrement (12 h, TNF-α vs Lev 0.1 mM) | IL-1α (NO PMA), p of decrement (12 h, TNF-α vs Lev 0.1 mM) | IL-1β (NO PMA), p of decrement (12 h, TNF-α vs Lev 0.1 mM) | IL-5 (NO PMA), p of decrement (12 h, TNF-α vs Lev 0.1 mM) | IL-7 (NO PMA), p of decrement (12 h, TNF-α vs Lev 0.1 mM) | IL-8 (NO PMA), p of decrement (12 h, TNF-α vs Lev 0.1 mM) | IP-10 (NO PMA), p of decrement (12 h, TNF-α vs Lev 0.1 mM) | MCP-1 (NO PMA), p of decrement (12 h, TNF-α vs Lev 0.1 mM) | MIP-1β (NO PMA), p of decrement (12 h, TNF-α vs Lev 0.1 mM) | VEGF (NO PMA), p of decrement (12 h, TNF-α vs Lev 0.1 mM) | Fractalkine (NO PMA), p of decrement (12 h, TNF-α vs Lev 0.5 mM) | IL-1ra (NO PMA), p of decrement (12 h, TNF-α vs Lev 0.5 mM) | IL-1α (NO PMA), p of decrement (12 h, TNF-α vs Lev 0.5 mM) | IL-1β (NO PMA), p of decrement (12 h, TNF-α vs Lev 0.5 mM) | IL-5 (NO PMA), p of decrement (12 h, TNF-α vs Lev 0.5 mM) | IL-7 (NO PMA), p of decrement (12 h, TNF-α vs Lev 0.5 mM) | IL-8 (NO PMA), p of decrement (12 h, TNF-α vs Lev 0.5 mM) | IP-10 (NO PMA), p of decrement (12 h, TNF-α vs Lev 0.5 mM) | MCP-1 (NO PMA), p of decrement (12 h, TNF-α vs Lev 0.5 mM) | MIP-1β (NO PMA), p of decrement (12 h, TNF-α vs Lev 0.5 mM) | VEGF (NO PMA), p of decrement (12 h, TNF-α vs Lev 0.5 mM) | Fractalkine (NO PMA), p of decrement (12 h, TNF-α vs Lev 1.0 mM) | IL-1ra (NO PMA), p of decrement (12 h, TNF-α vs Lev 1.0 mM) | IL-1α (NO PMA), p of decrement (12 h, TNF-α vs Lev 1.0 mM) | IL-1β (NO PMA), p of decrement (12 h, TNF-α vs Lev 1.0 mM) | IL-5 (NO PMA), p of decrement (12 h, TNF-α vs Lev 1.0 mM) | IL-7 (NO PMA), p of decrement (12 h, TNF-α vs Lev 1.0 mM) | IL-8 (NO PMA), p of decrement (12 h, TNF-α vs Lev 1.0 mM) | IP-10 (NO PMA), p of decrement (12 h, TNF-α vs Lev 1.0 mM) | MCP-1 (NO PMA), p of decrement (12 h, TNF-α vs Lev 1.0 mM) | MIP-1β (NO PMA), p of decrement (12 h, TNF-α vs Lev 1.0 mM) | VEGF (NO PMA), p of decrement (12 h, TNF-α vs Lev 1.0 mM) | Fractalkine (NO PMA), p of decrement (12 h, TNF-α vs Lev 2.3 mM) | IL-1ra (NO PMA), p of decrement (12 h, TNF-α vs Lev 2.3 mM) | IL-1α (NO PMA), p of decrement (12 h, TNF-α vs Lev 2.3 mM) | IL-1β (NO PMA), p of decrement (12 h, TNF-α vs Lev 2.3 mM) | IL-5 (NO PMA), p of decrement (12 h, TNF-α vs Lev 2.3 mM) | IL-7 (NO PMA), p of decrement (12 h, TNF-α vs Lev 2.3 mM) | IL-8 (NO PMA), p of decrement (12 h, TNF-α vs Lev 2.3 mM) | IP-10 (NO PMA), p of decrement (12 h, TNF-α vs Lev 2.3 mM) | MCP-1 (NO PMA), p of decrement (12 h, TNF-α vs Lev 2.3 mM) | MIP-1β (NO PMA), p of decrement (12 h, TNF-α vs Lev 2.3 mM) | VEGF (NO PMA), p of decrement (12 h, TNF-α vs Lev 2.3 mM) | Fractalkine (NO PMA), p of decrement [5] | G-CSF (NO PMA), p of decrement [5] | GM-CSF (NO PMA), p of decrement [5] | IL-1α (NO PMA), p of decrement [5] | IL-1β (NO PMA), p of decrement [5] | IL-5 (NO PMA), p of decrement [5] | IL-7 (NO PMA), p of decrement [5] | IL-10 (NO PMA), p of decrement [5] | IP-10 (NO PMA), p of decrement [5] | MIP-1β (NO PMA), p of decrement [5] | TGF-α (NO PMA), p of decrement [5] | Fractalkine (NO PMA), p of decrement [6] | G-CSF (NO PMA), p of decrement [6] | GM-CSF (NO PMA), p of decrement [6] | IL-1α (NO PMA), p of decrement [6] | IL-1β (NO PMA), p of decrement [6] | IL-5 (NO PMA), p of decrement [6] | IL-7 (NO PMA), p of decrement [6]
< 0.001: RANTES (NO PMA), p of increase (12 h, TNF-α vs Lev 0.1-2.3 mM)
Increase: MCP-1 (NO PMA), p of decrement [5] | MIP-1α (NO PMA), p of decrement [5] | RANTES (NO PMA), p of decrement [5]
P < 0.001: IL-12p40 (NO PMA), p of decrement [1] | IL-12p40 (NO PMA), p of decrement [2] | IL-12p40 (NO PMA), p of decrement [3] | IL-1ra (NO PMA), p of decrement [5] | IL-6 (NO PMA), p of decrement [5] | IL-8 (NO PMA), p of decrement [5] | VEGF (NO PMA), p of decrement [5] | IL-1ra (NO PMA), p of decrement [6] | IL-6 (NO PMA), p of decrement [6]
cytokine secretion p < 0.01: MIP-1α (NO PMA), p of increase (12 h, TNF-α vs Lev 0.1-2.3 mM)
